Here are results for 1 molecule from PMC2695604 (2009).

This experiment addresses isoleucyl-tRNA synthetase (IleRS) (Escherichia coli, UniProt P00956). Description: affinity labeling with saturation kinetics of inactivation. The experiment is classed as biochemical.

isoleucyl-tRNA synthetase (IleRS), sequence (P00956 2-938): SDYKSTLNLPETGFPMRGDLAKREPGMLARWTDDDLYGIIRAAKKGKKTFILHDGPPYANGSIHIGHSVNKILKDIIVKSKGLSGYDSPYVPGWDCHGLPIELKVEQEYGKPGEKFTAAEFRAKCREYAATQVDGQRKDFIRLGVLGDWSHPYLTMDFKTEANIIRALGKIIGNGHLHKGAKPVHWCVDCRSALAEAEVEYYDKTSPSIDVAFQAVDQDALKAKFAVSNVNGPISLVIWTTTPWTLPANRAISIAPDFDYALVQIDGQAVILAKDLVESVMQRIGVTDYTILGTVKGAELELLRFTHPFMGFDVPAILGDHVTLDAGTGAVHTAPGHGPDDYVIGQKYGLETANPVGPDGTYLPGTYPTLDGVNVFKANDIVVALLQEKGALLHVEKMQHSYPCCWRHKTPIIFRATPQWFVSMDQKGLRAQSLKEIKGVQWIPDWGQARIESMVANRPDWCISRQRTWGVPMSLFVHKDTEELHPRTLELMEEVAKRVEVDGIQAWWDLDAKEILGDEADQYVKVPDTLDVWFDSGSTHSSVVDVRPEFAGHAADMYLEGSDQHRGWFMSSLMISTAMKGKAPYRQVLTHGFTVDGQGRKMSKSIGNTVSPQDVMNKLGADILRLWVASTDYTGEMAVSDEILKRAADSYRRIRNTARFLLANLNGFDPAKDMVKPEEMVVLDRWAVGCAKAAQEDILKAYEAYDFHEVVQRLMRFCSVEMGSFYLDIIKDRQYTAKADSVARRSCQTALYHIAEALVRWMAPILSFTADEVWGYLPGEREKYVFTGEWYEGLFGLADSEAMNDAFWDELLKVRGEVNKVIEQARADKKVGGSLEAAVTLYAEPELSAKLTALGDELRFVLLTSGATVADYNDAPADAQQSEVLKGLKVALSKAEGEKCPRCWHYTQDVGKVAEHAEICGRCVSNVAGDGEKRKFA

In turn, `CC[C@H](C)[C@H](N)C(=O)CBr` [IBMK, L-isoleucine bromomethyl ketone] yielded a KI (inactivation) of around 100 µM.
